Test results from paper PMC10864208, “Characterizing the protein–protein interaction between MDM2 and 14-3-3σ; proof of concept for small molecule stabilization” (The Journal of Biological Chemistry, 2024).
Like-named read-outs stand apart in the source and are kept apart here. Blank lines part the entries; values can stand above or below the compound they belong to. Non-standard residues stand in square brackets, D forms with d. Residues, ends and D or L forms follow the SMILES beside them. pS = N[C@@H](COP(=O)(O)O)C(=O)O

Experiments:
14-3-3σ = biological target: T1, 14-3-3σ (Homo sapiens, UniProt P31947); assay: fluorescence polarization (FP), direct binding to 14-3-3σ; details: for maximum polarization level (in words) / binding to 14-3-3σ by FP (in words): FITC-labeled peptide 10 nM; for maximum polarization level (in words): 14-3-3σ titration; for binding to 14-3-3σ by FP (in words): pH 7.5
T1 sequence (P31947 1-248): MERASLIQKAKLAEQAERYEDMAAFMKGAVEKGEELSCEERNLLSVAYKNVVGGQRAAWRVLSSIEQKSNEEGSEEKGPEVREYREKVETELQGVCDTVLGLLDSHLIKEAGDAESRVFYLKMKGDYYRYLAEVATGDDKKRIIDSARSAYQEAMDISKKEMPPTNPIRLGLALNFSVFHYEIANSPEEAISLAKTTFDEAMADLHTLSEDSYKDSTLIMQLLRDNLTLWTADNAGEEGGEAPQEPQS
Experimental: (§2) For all experiments, a fixed concentration of 10 nM fluorescently labeled peptide (FITC) was used. […] All data was analyzed using GraphPad Prism 7 and sigmoidal curves were fitted using the following equation: Y=Bottom + (Top-Bottom)/(1+10ˆ((Log app.Kd-X)∗HillSlope)), where Y = mP value; X = log 14-3-3 concentration; top and bottom = plateaus in mP.
(§3) Both proteins were prepared via the following procedure:
(§4) For all experiments a fixed concentration of 10 nM fluorescently labelled peptide (FITC) was used. […] All data was analysed using GraphPad Prism 7 and sigmoidal curves were fitted using the following equation:

[1] = test system: 14-3-3σ/MDM2_159-173^pS166 peptide; assay: FP, FC-A effect on 14-3-3σ/MDM2 159-173 pS166; type: binding; details: 1.0 mM FC-A, 10 nM FITC-labeled MDM2_159-173^pS166; accurate fit not obtained
Source text: (§1) . Red arrows highlight peaks for the ternary complex.

14-3-3σ/MDM2 complex = assay: native mass spectrometry, ternary complex with FC-A; type: binding; details: for relative abundance of ternary complex 14-3-3σ + MDM2 + FC-A (native MS): pH 6.8, SD, n = 3
Experimental: as §1
14-3-3 σ was buffer exchanged into 100 mM ammonium acetate pH 6.8 using a 30 kDa molecular weight cut-off Amicon Ultra centrifugal filter (Merck Millipore) and stored at −80 °C prior to use. […] . All native MS experiments were performed on an Orbitrap Eclipse Tribrid mass spectrometer (Thermo Fisher Scientific, Bremen) coupled to a nanoelectrospray source that used gold-coated borosilicate glass capillaries, pulled in-house. Positive ionization mode was used throughout with the capillary voltage set to 1.2 kV. The source temperature was set at 275 °C, in-source dissociation at 25, S-lens RF at 100. High pressure mode was used and a mass range of 2000 to 8000 m/z used to monitor the binding equilibria. Mass spectra were acquired using a maximum ion injection time of 50 ms. The automatic gain control was set to 1 x 10^6 and the ions detected in the Orbitrap with resolution set to 7500. All data was analyzed using XCalibur (v.4.1). All proteins and protein complexes were identified based on their theoretical mass.
Analytical grade ammonium acetate and LC-MS grade Dimethyl Sulfoxide (DMSO) were purchased from Fisher Scientific. 14-3-3 σ was buffer exchanged into 100 mM ammonium acetate pH 6.8 using a 30 kDa molecular weight cut-off Amicon Ultra centrifugal filter (Merck Millipore) and stored at -80 °C prior to use. The lyophilised MDM2161-191^pS166/pS186 31mer peptide (see Table S4) was diluted into 100mM ammonium acetate pH 6.8. […] . To quantify each complex, the relative abundance of the complexes observed was assumed to reflect their abundance in solution. Due to overlapping peaks, 15+ ions were excluded from analysis. […] . Standard deviations of the abundance of each complex were calculated from 3 replicates.

14-3-3 PPIs = details: cited from earlier work
Source text: To investigate the feasibility of this, the effect of fusicoccin A (FC-A) on the PPI was studied using FP, ITC, and native MS.

14-3-3σ and 14-3-3ζ = assay: ITC, mono-phosphorylated MDM2 peptides; type: binding; details: N-acetylated peptide 1.0 mM into 14-3-3 100 µM, 25 °C, pH 7.5, Malvern MicroCal ITC200
14-3-3ζ = biological target: T2, 14-3-3ζ (Homo sapiens, UniProt P63104); assay: fluorescence polarization (FP), direct binding to 14-3-3ζ
T2 sequence (P63104 1-245): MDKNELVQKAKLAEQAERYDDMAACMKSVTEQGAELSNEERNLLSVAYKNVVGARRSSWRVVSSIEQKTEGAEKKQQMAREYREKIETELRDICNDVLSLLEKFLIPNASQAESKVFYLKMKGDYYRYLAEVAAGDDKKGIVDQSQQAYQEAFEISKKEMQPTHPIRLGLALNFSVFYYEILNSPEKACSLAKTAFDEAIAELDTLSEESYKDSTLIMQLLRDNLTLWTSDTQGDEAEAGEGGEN
Experimental: as §2, §3, §4

[2] = biological target: 14-3-3σ/MDM2_179-193^pS186 peptide (Homo sapiens, UniProt P31947+Q00987); assay: biochemical
Experimental: as §2

Compound: FITC-Ahx-^159SSRRRAISETEENSDELSGERQRKRHK(pS)DSISLSF^193-NH2 (SSRRRAISETEENSDELSGERQRKRHKSDSISLSF; phosphoSer186; FITC label; UniProt Q00987 159-193, looked up, fragment) [MDM2_159-193^pS186]
maximum polarization level (in words) (14-3-3σ): comparable to that observed for the di-phosphorylated MDM2_161-191^pS166/pS186 peptide
binding to 14-3-3σ by FP (in words) (14-3-3σ): much weaker affinity than the 15 amino acid MDM2_179-193^pS186 peptide

Compound: FITC-Ahx-^159SSRRRAI(pS)ETEENSDELSGERQRKRHKSDSISLSF^193-NH2 (SSRRRAISETEENSDELSGERQRKRHKSDSISLSF; phosphoSer166; FITC label; UniProt Q00987 159-193, looked up, fragment) [MDM2_159-193^pS166]
maximum polarization level (in words) (14-3-3σ): small increase in the maximum polarization value
binding to 14-3-3σ by FP (in words) (14-3-3σ): saturation was not observed and an effective Kd value could not be obtained

Compound: C=CC(C)(C)OC[C@H]1O[C@H](O[C@@H]2C3=C([C@H](C)COC(C)=O)C[C@H](O)[C@]3(C)/C=C3/[C@@H](COC)CC[C@H]3[C@@H](C)[C@H]2O)[C@H](O)[C@@H](OC(C)=O)[C@@H]1O [FC-A, fusicoccin A]
effect of FC-A on binding (FP, in words) [1]: small effect
relative abundance of ternary complex 14-3-3σ + MDM2 + FC-A (native MS) (14-3-3σ/MDM2 complex; 14-3-3σ 5 μM : MDM2 10 μM : FC-A 5 μM): 6 ± 3%
relative abundance of ternary complex 14-3-3σ + MDM2 + FC-A (native MS) (14-3-3σ/MDM2 complex; 14-3-3σ 5 μM : MDM2 10 μM : FC-A 25 μM): 15 ± 5%
composition of ternary complex (native MS, in words) (14-3-3σ/MDM2 complex; 14-3-3σ 5 μM, MDM2 peptide 10 μM, FC-A 5 or 25 μM): a 14-3-3 dimer, a single MDM2 di-phosphorylated peptide, and a single FC-A molecule
stabilization of di-phosphorylated mode I/II motif peptides, e.g. CFTR (in words) (14-3-3 PPIs; ref [27]): shown to stabilize peptides containing mode I/II type di-phosphorylated binding motifs
stabilization of mode III 14-3-3 PPIs (in words) (14-3-3 PPIs; ref [43]): predominantly stabilizes mode III 14-3-3 PPIs

binding by ITC (in words) (14-3-3σ and 14-3-3ζ): could not be detected
Compound: AcHN-^159SSRRRAI(pS)ETEENSD^173-NH2 (Ac-SSRRRAI[pS]ETEENSD-NH2; SMILES CC[C@H](C)[C@H](NC(=O)[C@H](C)NC(=O)[C@H](CCCNC(=N)N)NC(=O)[C@H](CCCNC(=N)N)NC(=O)[C@H](CCCNC(=N)N)NC(=O)[C@H](CO)NC(=O)[C@H](CO)NC(C)=O)C(=O)N[C@@H](COP(=O)(O)O)C(=O)N[C@@H](CCC(=O)O)C(=O)N[C@H](C(=O)N[C@@H](CCC(=O)O)C(=O)N[C@@H](CCC(=O)O)C(=O)N[C@@H](CC(N)=O)C(=O)N[C@@H](CO)C(=O)N[C@@H](CC(=O)O)C(N)=O)[C@@H](C)O; UniProt Q00987 159-173, looked up, fragment) [MDM2_159-173^pS166]
binding to 14-3-3σ by FP (in words) (14-3-3σ): bound weakly to 14-3-3σ and saturation was not observed
binding to 14-3-3ζ by FP (in words) (14-3-3ζ; FITC-labeled peptide 10 nM, pH 7.5): bound weakly to 14-3-3ζ, and no effective Kd value could be obtained

Kd [2]: 24.6 ± 12 µM
Kd (14-3-3σ): 26.2 ± 17.9 µM
Kd (14-3-3σ; Kd (FP), duplicate data, duplicate data set (Fig. S1A), 14-3-3σ titrated to 10 nM FITC-labelled peptide, pH 7.5, room temperature, SD, n=3): 22.3 ± 21.5 µM
Kd (14-3-3ζ): 11.4 ± 5.4 µM
Compound: CC[C@H](C)[C@H](NC(=O)[C@H](CO)NC(=O)[C@H](CC(=O)O)NC(=O)[C@H](COP(=O)(O)O)NC(=O)[C@H](CCCCN)NC(=O)[C@H](Cc1c[nH]cn1)NC(=O)[C@H](CCCNC(=N)N)NC(=O)[C@H](CCCCN)NC(=O)[C@H](CCCNC(=N)N)NC(=O)[C@H](CCC(N)=O)NC(=O)[C@H](CCCNC(=N)N)NC(C)=O)C(=O)N[C@@H](CO)C(=O)N[C@@H](CC(C)C)C(=O)N[C@@H](CO)C(=O)N[C@@H](Cc1ccccc1)C(N)=O [MDM2_179-193^pS186] (Ac-RQRKRHK[pS]DSISLSF-NH2)
